According to patent US20080076729A1, “Interferon-beta gene therapy using an improved, regulated expression system” (Schering Aktiengesellachaft, priority 2005, published 2008):
Where two headings read alike, the source gives them in different places.

How the values were obtained:
luciferase reporter gene = assay: Luciferase reporter gene assay for activity of purified mIFN-β protein; assay type: cell-based
Experimental: Specifically, the gene encoding mIFN-β was cloned into a pCEP4 expression vector (Invitrogen). The expression plasmid encoding mIFN-β was transiently transfected into 293E cells (Edge Biosystems) using X-tremeGene Ro-1539 Transfection Reagent (Roche). Murine IFN-β protein was purified from the medium by ion-exchange chromatography and by hydrophobic-interaction chromatography. The product was sialyzed and concentrated against dilution buffer (50 mM sodium acetate, pH 5.5, 150 mM sodium chloride, and 5% polypropylene glycol) and sterile filtered. Aliquots of the purified protein were stored at −80° C. The activity of the purified protein was assessed using a luciferase reporter gene assay (Hardy et al. (2001) Blood 97:473-482), using a commercial mIFN-β reference standard from Access Biomedical (San Diego, Calif.). The specific activity of the purified protein was 2×10^8 units/mg.
The positive control used for this study was Prednisolone, 2.5 mg/kg, (Sigma, St. Louis) administered by IP injection twice daily, beginning on day 1, until the end of the study. For mIFN-β protein delivery, the mice were given SC injections of purified recombinant mIFN-β protein every other day, starting on day 1 of the study (100,000 or 300,000 IU per animal per injection in 100 ul vehicle buffer). […]

[1] = tested on: Mx1 RNA in murine L929 cells; assay: Mx1 RNA induction in vitro in L929 cells (TaqMan RT-PCR); assay type: cell-based
Experimental: FIG. 5 illustrates Mx1 RNA induction in vitro (in L929 cells) by mIFN-β. L929 cells were seeded at 5×10^5 cells in 6 well plates and stimulated with increasing amounts of purified recombinant mIFN-β protein. Four hours after treatment the cells were harvested, RNA isolated, and Mx1 RNA quantitated by TaqMan analysis. Mx1 RNA expression is plotted as the fold increase relative to GAPDH RNA.
• A. Development of mIFN-β Biomarkers: For higher sensitivity in detection of murine IFN-β (mIFN-β) activity in vivo, biomarkers for mIFN-β activity were identified in mice after injection of mIFN-β protein or mIFN-β encoded gene therapy vectors. […] In the present study, the expression of the MxA mouse homologue, Mx1, (see e.g., Hug, H et al. Mol Cell Biol 8: 3065-79; Pavlovic, J (1993) Ciba Found Symp 176: 233-43) isolated from murine peripheral blood monocytes (PBMC's) was used to detect the presence of biologically active mIFN-β. • A quantitative PCR/RT-PCR assay was developed to quantitate the levels of Mx1 mRNA in murine PBMC's. […] The samples were analyzed with an Mx1-specific probe/primer combination. Mx1 expression was normalized to GAPDH expression measured in parallel using a standard assay from ABI. • The assay was validated in vitro by examining Mx1 RNA induction in murine L929 cells treated with purified recombinant mIFN-β protein (FIG. 5). […]

Mx1 RNA = Mx1 RNA induction in PBMCs of treated mice (quantitative RT-PCR, normalized to GAPDH); assay type: in vivo
Experimental: FIG. 6 illustrates Mx1 RNA induction following i.v. (A) or i.m. injection (B) of mIFN-β protein. C57BL/6 mice were administered 15, 150, or 500 ng of purified recombinant mIFN-β protein (specific activity-2.0×10^8 units/mg) by either i.v. (via tail vein) or i.m. injection (n=3 mice per group). At the specified time points post-injection mice were bled, and RNA was isolated from PBMCs. Mx1 RNA was measured by quantitative RT-PCR. The fold increase in Mx1 RNA is expressed relative to GAPDH values measured in the same samples. The controls include naive mice (N), and mice injected with the vehicle buffer only followed by Mx1 analysis at 2 hours (V2 h) or 4 h (V4 h) post-injection. Each column represents the mean value +/− standard deviation.

SJL mice with acute EAE = assay: Mouse acute EAE model, daily clinical scoring; assay type: in vivo

mIFN-β: purified recombinant murine interferon-beta protein
specific activity of the purified protein (luciferase reporter gene): 2×10^8 international units (IU) per mg
specific activity of the purified protein (luciferase reporter gene; commercial mIFN-β reference standard): 2×10^8 units/mg
EC50 of Mx1 RNA induction ([1]; 4 hours treatment): approximately 50 pg/ml
increase in the level of Mx1 RNA ([1]; relative to GAPDH): 100 fold
time after injection beyond which no Mx1 RNA levels above background were detected (Mx1 RNA; bolus protein): 12 h
Induction of Mx1 RNA expression relative to vehicle injected mice (Mx1 RNA; bolus protein 15, 150 or 500 ng, i.v. or i.m.): 25- to 50 fold
Tmax of induction of all three biomarkers (Mx1, IP-10, JE) (Mx1 RNA; bolus protein i.v. or i.m.): approximately 2 hours
time after injection of highest Mx1 expression levels (Mx1 RNA; bolus protein i.v. or i.m.): 2 h
time post-injection within which biomarker levels dropped to background (Mx1 RNA; bolus protein i.v. or i.m.): 12 to 24 h
dose giving highest Mx1 induction (Mx1 RNA; i.v. injection, diminished at 500 ng): 150 ng
clinical scores of EAE compared to vehicle treated mice (SJL mice with acute EAE; 30,000 units s.c. every other day, first study): did not reach statistical significance
clinical scores of EAE compared to vehicle control (SJL mice with acute EAE; 100,000 Units s.c. every other day, second study (FIG. 12)): significantly decreased clinical scores
severity of the disease (clinical scores) compared to vehicle treated animals (SJL mice with acute EAE; 100,000 or 300,000 units SC every other day, 25 day study (FIG. 39A)): significantly reduced the severity of the disease
clinical scores of EAE compared with vehicle treated mice (SJL mice with acute EAE; 100,000 units s.c. every other day, first study (FIG. 11)): significantly decreased clinical scores
